Test results: patent US4717731A, “7H thieno[2,3-a]quinolizines, useful as α2 -andrenoceptor antagonist” (John Wyeth & Brother Limited, priority 1984, dated 1988)

Assays:
α1 -adrenoceptors = test: α1 antagonistic activity on the isolated anococcygeus muscle of the rat (vs phenylephrine or methoxamine); settings: agonist phenylephrine or methoxamine, Schild method, 30 min
Excerpt: The compounds of the invention generally antagonise the α2 -adrenoceptors to a much greater extent than the α1 -adrenoceptors. The α1 antagonistic activity can be evaluated by a number of different methods. One method involves assessing the activity on the isolated anococcygeus muscle of the rat. The method is based on that of Gillespie, Br.J.Pharmac., 1972, 45, 404-416. In the procedure male rats (250-360 g) are killed by a blow on the head and bled. The two anococcygeus muscles are removed from their position in the midline of the pelvic cavity, where they arise from the upper coccygeal vertebrae. The muscles are suspended in 5 ml organ baths in Krebs solution containing 10^-4 M ascorbic acid; to prevent drug oxidation. The tissues are gassed with a 95% oxygen, 5% CO2 mixture and maintained at 37°. Longitudinal muscle contractions are recorded using isotonic transducers. Cumulative dose response curves are then obtained to phenylephrine or in some cases methoxamine, both agents being […] alpha adrenoceptor agonists. The concentration range of phenylephrine or methoxamine used is 0.02 to 0.8 μg.ml^-1. The agonist is then washed from the bath and the test drug added to the bathing medium at a concentration of 10^-6 M. After 30 min equilibration with the test drug a further agonist dose response curve is obtained. […]

α2 -adrenoceptor = test: α2-adrenoceptor antagonistic activity on the rat field stimulated vas deferens preparation (vs clonidine); settings: for α2 /α1 selectivity [antilog of (α2 pA2 -α1 pA2)]: from vas deferens α2 pA2 and anococcygeus α1 pA2; for pA2 for α2 -adrenoceptor antagonistic activity: rat field stimulated vas deferens, agonist clonidine, Schild plot, 90 min
Experimental: The compounds of the invention are tested for α2 -adrenoceptor antagonistic activity on the rat field stimulated vas deferens preparation using a modification of the method of Drew, Eur. J. Pharmac., 1977, 42, 123-130. The procedure is described below.
Desheathed vasa deferentia from sexually mature rats were suspended in a 6 ml organ bath in Krebs solution at 37° and bubbled with 5% CO2 in oxygen. Platinum ring electrodes were positioned above and below the tissue for field stimulation, the stimulus parameters being 0.1 Hz 1 ms pulse width at supramaximal voltage. Twitch responses were recorded isotonically with a 0.5 g loading. Clonidine hydrochloride was used as the α-adrenoceptor agonist and cumulative concentration-response curves were constructed for the inhibition of twitch obtained with clonidine in the range 0.125 to 4 ng ml^-1. After washing out clonidine, the twitch response quickly recovered and an antagonist was then introduced into the Krebs reservoir. Clonidine concentration-response curves were repeated 90 min after introduction of the antagonist. The concentration of clonidine producing 50% inhibition of twitch before and after introduction of antagonist were obtained and the dose-ratio for clonidine was calculated. Various concentrations of the antagonists were used.
Chemother., 1959, 14, 48-58 and the values of pA2 and slope were calculated.

SMILES	pA2 values for α1 antagonistic activity (α1 -adrenoceptors)	α2 /α1 selectivity [antilog of (α2 pA2 -α1 pA2)] (α2 -adrenoceptor)	pA2 for α2 -adrenoceptor antagonistic activity (α2 -adrenoceptor)
CCCS(=O)(=O)N(C)[C@@H]1CCN2CCc3ccsc3[C@@H]2C1 (relative stereo) [Example 2, N-(4,5,8,9,10,10aα-hexahydro-7H-thieno[2,3-a]quinolizin-9β-yl)-N-methylpropanesulphonamide]	5.9	40	7.5
CCS(=O)(=O)NCCN([C@@H]1CCN2CCc3ccsc3[C@@H]2C1)S(=O)(=O)CC (relative stereo) [Example 5, N-(4,5,8,9α,10,10aα-Hexahydro-7H-thieno[2,3-a]quinolizin-9-yl)-N-(2-ethanesulphonamidoethyl)ethane sulphonamide]	5.18	132	7.31
